According to US20250353833A1, “DPP9 BINDING COMPOUNDS” (UNIVERSITEIT ANTWERPEN, priority 2022, published 2025):
Like-named read-outs stand apart in the source and are kept apart here.

Experiments:
Assay type in all cases: biochemical
DPP8 = DPP8 (Homo sapiens (Human), UniProt Q6V1X1); experiment: DPP8 enzyme inhibition, IC50 measurement (Ala-Pro-pNA release)
Protocol: (§1) IC50 measurements. […] The Magellan software was used to process the data, which was then fitted using a non-linear fit model in GraFit 7. […] As a blank, the assay buffer was used instead of the enzyme. Screening measurements were carried out in duplo and IC50 values were determined in triplo with at least eight different inhibitor concentrations as described by Van Goethem et al.

DPP9 = DPP9 (Homo sapiens (Human), UniProt Q86TI2); experiment: DPP9 enzyme inhibition, IC50 measurement (Ala-Pro-pNA release); details: for SI DPP9/8 / SI DPP9/DPP8: selectivity index; for SI DPP9/8: DPP8 IC50 over DPP9 IC50; for SI DPP9/4: selectivity index DPP9/4
Protocol: (§2) DPP4 was purified from human seminal plasma as described previously.^[3]
as §1

DPP2 = DPP2 (Homo sapiens (Human), UniProt Q9UHL4); experiment: DPP2 enzyme inhibition, IC50 measurement (Lys-Ala-pNA release); details: Table 1; mean ± SD (n = 3)
Protocol: as §1

FAP = FAP (Homo sapiens (Human), UniProt Q12884); experiment: FAP enzyme inhibition, IC50 measurement (Z-Gly-Pro-AMC release); details: for IC50: Table 1, mean ± SD (n = 3)
PREP = PREP (Homo sapiens (Human), UniProt P48147); experiment: PREP enzyme inhibition, IC50 measurement (N-succinyl-Gly-Pro-AMC release); details: Table 1; mean ± SD (n = 3)
Protocol: as §1

DPP4 = DPP4 (Homo sapiens (Human), UniProt P27487); experiment: DPP4 enzyme inhibition, IC50 measurement (Ala-Pro-pNA release); details: Table 1; mean ± SD (n = 3)
Protocol: as §2, §1

[1] = Table 1, mean ± SD (n = 3), read-out: IC50 DPP8
[2] = Table 1, mean ± SD (n = 3), read-out: IC50 DPP9
[3] = Table 3, mean ± SD (n = 3), read-out: DPP8 IC50 ± SD
[4] = Table 3, mean ± SD (n = 3), read-out: DPP9 IC50 ± SD
[5] = Table 4, standard method, read-out: IC50 DPP8
[6] = Table 4, standard method, read-out: IC50 DPP9

Sequence of DPP4 (P27487 whole entry): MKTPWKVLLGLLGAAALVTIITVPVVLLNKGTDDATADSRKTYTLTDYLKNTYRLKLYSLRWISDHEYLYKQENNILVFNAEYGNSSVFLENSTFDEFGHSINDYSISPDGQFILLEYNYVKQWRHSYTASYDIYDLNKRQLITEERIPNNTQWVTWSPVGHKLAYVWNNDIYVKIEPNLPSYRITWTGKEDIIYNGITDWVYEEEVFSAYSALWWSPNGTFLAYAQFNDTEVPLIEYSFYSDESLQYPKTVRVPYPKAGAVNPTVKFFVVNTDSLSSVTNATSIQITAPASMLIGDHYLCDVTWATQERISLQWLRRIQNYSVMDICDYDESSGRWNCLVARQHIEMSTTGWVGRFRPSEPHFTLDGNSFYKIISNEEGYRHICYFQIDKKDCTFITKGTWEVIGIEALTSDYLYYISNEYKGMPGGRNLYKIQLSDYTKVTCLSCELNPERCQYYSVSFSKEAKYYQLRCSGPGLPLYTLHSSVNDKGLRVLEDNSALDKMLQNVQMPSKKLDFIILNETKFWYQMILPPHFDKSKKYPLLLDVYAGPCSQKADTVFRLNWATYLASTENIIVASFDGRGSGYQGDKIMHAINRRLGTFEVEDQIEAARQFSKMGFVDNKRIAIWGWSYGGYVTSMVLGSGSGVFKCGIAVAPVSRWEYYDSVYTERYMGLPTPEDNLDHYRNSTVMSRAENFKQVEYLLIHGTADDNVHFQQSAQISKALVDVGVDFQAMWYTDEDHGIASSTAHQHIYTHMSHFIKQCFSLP
Sequence of PREP (P48147 whole entry): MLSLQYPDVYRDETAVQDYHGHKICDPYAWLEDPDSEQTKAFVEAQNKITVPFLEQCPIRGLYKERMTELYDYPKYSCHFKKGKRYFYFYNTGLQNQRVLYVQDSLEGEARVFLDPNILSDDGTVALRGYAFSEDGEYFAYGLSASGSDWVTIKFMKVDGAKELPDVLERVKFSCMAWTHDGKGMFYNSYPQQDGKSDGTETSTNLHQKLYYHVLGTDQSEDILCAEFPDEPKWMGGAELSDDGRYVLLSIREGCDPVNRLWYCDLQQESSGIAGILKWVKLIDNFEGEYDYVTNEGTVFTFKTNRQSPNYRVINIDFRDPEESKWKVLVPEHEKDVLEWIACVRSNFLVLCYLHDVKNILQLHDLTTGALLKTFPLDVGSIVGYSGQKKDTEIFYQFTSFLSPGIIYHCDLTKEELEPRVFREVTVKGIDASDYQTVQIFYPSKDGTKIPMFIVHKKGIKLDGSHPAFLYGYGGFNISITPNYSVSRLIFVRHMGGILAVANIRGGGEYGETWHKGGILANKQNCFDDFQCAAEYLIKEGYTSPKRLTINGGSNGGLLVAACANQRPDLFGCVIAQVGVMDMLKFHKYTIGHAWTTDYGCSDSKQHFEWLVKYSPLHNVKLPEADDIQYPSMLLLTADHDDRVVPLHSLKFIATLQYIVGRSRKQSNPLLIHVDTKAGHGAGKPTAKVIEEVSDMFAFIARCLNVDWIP
Sequence of DPP8 (Q6V1X1 whole entry): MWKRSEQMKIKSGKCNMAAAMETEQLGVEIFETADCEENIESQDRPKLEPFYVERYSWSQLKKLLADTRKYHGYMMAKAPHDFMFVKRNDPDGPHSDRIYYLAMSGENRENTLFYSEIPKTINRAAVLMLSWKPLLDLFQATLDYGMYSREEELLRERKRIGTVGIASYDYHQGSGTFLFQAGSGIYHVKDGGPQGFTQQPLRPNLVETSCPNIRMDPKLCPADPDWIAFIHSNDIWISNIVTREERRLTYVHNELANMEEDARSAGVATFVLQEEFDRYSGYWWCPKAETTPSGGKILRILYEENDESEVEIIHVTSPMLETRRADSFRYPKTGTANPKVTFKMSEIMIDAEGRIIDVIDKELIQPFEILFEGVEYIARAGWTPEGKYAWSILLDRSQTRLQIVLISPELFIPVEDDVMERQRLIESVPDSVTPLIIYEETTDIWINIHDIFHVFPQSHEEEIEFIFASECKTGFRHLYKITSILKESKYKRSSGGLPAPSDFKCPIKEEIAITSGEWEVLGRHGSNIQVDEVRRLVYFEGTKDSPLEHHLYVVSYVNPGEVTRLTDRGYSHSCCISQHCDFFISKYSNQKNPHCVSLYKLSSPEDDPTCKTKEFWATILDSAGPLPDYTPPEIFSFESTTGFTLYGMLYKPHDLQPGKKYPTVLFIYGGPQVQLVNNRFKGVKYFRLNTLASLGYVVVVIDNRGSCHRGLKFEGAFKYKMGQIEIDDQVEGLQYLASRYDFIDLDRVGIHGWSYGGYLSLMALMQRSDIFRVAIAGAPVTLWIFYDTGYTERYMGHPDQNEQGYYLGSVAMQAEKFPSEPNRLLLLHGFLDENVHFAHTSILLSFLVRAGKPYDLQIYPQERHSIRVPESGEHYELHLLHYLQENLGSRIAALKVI
Sequence of DPP9 (Q86TI2 whole entry): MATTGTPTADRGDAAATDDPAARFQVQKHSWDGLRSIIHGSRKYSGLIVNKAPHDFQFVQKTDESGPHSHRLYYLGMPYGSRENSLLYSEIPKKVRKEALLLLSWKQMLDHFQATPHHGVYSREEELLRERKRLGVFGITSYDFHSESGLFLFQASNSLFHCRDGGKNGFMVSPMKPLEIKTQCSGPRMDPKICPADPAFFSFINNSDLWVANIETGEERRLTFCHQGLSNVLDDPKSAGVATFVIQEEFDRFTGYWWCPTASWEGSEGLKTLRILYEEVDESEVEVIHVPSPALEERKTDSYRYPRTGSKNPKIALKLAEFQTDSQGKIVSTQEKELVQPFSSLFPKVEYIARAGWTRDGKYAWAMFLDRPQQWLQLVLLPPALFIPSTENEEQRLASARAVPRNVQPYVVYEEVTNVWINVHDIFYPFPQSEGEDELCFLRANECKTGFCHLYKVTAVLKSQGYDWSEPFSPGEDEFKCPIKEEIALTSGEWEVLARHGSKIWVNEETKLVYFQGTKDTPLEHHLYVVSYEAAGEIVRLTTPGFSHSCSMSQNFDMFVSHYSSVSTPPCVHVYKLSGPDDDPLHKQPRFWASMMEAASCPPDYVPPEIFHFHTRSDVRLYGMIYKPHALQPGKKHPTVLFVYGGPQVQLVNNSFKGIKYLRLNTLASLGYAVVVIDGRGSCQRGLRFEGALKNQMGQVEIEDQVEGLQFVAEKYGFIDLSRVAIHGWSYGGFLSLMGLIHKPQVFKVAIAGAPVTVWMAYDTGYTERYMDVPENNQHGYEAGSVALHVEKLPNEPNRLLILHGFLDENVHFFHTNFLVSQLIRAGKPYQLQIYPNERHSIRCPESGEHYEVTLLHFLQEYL
Sequence of FAP (Q12884 27-760): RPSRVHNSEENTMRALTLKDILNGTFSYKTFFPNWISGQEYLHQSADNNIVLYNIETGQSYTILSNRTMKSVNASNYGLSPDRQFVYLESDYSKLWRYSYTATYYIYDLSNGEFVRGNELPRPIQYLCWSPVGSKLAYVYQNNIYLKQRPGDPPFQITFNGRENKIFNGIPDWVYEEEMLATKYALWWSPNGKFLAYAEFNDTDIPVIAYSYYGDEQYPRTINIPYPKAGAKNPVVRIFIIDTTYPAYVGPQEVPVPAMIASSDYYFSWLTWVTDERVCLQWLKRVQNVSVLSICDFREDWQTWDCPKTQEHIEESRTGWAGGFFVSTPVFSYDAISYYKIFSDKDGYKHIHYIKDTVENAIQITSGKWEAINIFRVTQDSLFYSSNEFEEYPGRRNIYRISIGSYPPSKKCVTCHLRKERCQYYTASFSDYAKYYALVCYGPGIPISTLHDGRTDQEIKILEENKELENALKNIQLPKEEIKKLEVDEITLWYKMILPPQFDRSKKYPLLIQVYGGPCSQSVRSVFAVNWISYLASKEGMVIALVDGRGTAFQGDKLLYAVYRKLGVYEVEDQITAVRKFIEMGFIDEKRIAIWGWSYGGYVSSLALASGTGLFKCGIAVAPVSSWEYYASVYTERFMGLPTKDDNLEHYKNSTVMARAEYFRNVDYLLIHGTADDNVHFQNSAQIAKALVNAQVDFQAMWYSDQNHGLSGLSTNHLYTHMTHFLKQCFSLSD

Row | Compound | IC50 (DPP8; [1]) [nM] | SI DPP9/8 (DPP9; Table 1) | IC50 (DPP2) [µM] | IC50 (FAP) [µM] | IC50 (PREP) [µM] | IC50 (DPP9; [2]) [nM] | IC50 (DPP8; [5]) [nM] | SI DPP9/DPP8 (DPP9; Table 4) | IC50 (DPP9; [6]) [nM] | other results
1 | N#C[C@@H]1CCCN1C(=O)CNC12CC3CC(C1)CC(OCc1ccccc1)(C3)C2 [Compound 5a, (S)-1-((-3-(benzyloxy)adamantan-1-yl)glycyl)pyrrolidine-2-carbonitrile] | 1320 ± 200 | 9.9 | > 5 | 4 ± 4 | 4.3 ± 0.3 |  |  |  |  | inhibition of FAP (FAP; at the tested concentrations): micromolar inhibitor
2 | N#C[C@@H]1CCCN1C(=O)CNC12CC3CC(C1)CC(OCc1ccc(F)cc1F)(C3)C2 [Compound 5b, (S)-1-((-3-((2,4-difluorobenzyl)oxy)adamantan-1-yl)glycyl)pyrrolidine-2-carbonitrile] | 540 ± 100 | 10 | > 5 | > 10 | 2.2 ± 0.2 | 52 ± 8 |  |  |  | IC50 (DPP4): 5 ± 1 nM; SI DPP9/4 (DPP9; Table 1): 0.1
3 | CCCCOC12CC3CC(CC(NCC(=O)N4CCC[C@H]4C#N)(C3)C1)C2 [Compound 5c, (2S)-1-((-3-butoxyadamantan-1-yl)glycyl)pyrrolidine-2-carbonitrile] | 1250 ± 100 | 8.5 | > 5 | > 10 | > 10 | 150 ± 10 |  |  |  | IC50 (DPP4): 12 ± 2 nM; SI DPP9/4 (DPP9; Table 1): 0.07
4 | N#C[C@@H]1C[C@H](N=[N+]=[N-])CN1C(=O)CNC12CC3CC(CC(O)(C3)C1)C2 [Compound 5d, (2S,4S)-4-azido-1-((-3-hydroxyadamantan-1-yl)glycyl)pyrrolidine-2-carbonitrile] | 150 ± 20 | 9.4 | > 5 | > 10 | > 10 | 16 ± 1 |  |  |  | IC50 (DPP4): 32 ± 3 nM; SI DPP9/4 (DPP9; Table 1): 2
5 | N#C[C@@H]1C[C@H](N=[N+]=[N-])CN1C(=O)CNC12CC3CC(C1)CC(OCc1ccccc1)(C3)C2 [Compound 5e, (2S,4S)-4-azido-1-((3-(benzyloxy)adamantan-1-yl)glycyl)pyrrolidine-2-carbonitrile] | 60 ± 4 | 6.0 | > 5 | > 10 | > 10 | 10 ± 1 |  |  |  | IC50 (DPP4): 17 ± 3 nM; SI DPP9/4 (DPP9; Table 1): 1.7
6 | N#C[C@@H]1C[C@H](N=[N+]=[N-])CN1C(=O)CNC12CC3CC(C1)CC(OCc1ccc(F)cc1F)(C3)C2 [Compound 5f, (2S,4S)-4-azido-1-((3-((2,4-difluorobenzyl)oxy)adamantan-1-yl)glycyl)pyrrolidine-2-carbonitrile] | 41 ± 7 | 6.8 | > 5 | > 10 | > 10 | 6 ± 1 |  |  |  | IC50 (DPP4): 24 ± 3 nM; DPP9 inhibitory potency (in words) (DPP9): most potent DPP9 inhibitor; SI DPP9/4 (DPP9; Table 1): 3.3
7 | CCCCOC12CC3CC(CC(NCC(=O)N4C[C@@H](N=[N+]=[N-])C[C@H]4C#N)(C3)C1)C2 [Compound 5g, (2S,4S)-4-azido-1-((3-butoxyadamantan-1-yl)glycyl)pyrrolidine-2-carbonitrile] | 270 ± 60 | 7.8 | > 5 | > 10 | > 10 | 35 ± 2 |  |  |  | SI DPP9/4 (DPP9; Table 1): 3.8
8 | CCCCOC12CC3CC(CC(NCC(=O)N4C[C@H]5C[C@H]5[C@H]4C#N)(C3)C1)C2 [Compound 5o, (1R,2S,5S)-3-((-3-butoxyadamantan-1-yl)glycyl)-3-azabicyclo[3.1.0]hexane-2-carbonitrile] | > 10000 |  | > 5 | > 10 | > 10 | 990 ± 400 |  |  |  | 
9 | O=C1CCC(N2C(=O)c3cccc(NCCOCCOCCOCCNC(=O)NC45CC6CC(CC(NCC(=O)N7Cc8ccc(F)cc8C7)(C6)C4)C5)c3C2=O)C(=O)N1 (centres unmarked) [Compound 78, 1-(2-(2-(2-(2-((2-(2,6-Dioxopiperidin-3-yl)-1,3-dioxoisoindolin-4-yl)amino)ethoxy)ethoxy)ethoxy)ethyl)-3-(3-((2-(5-fluoroisoindolin-2-yl)-2-oxoethyl)amino)adamantan-1-yl)urea] |  |  |  |  |  |  |  |  |  | IC50 (DPP8; [3]): 79 nM; IC50 (DPP9; [4]): 12 nM; SI DPP9/8 (DPP9; Table 3): 7
10 | Cc1ccc2c(c1)CN(C(=O)CNC13CC4CC(C1)CC(NC(=O)OC(C)(C)C)(C4)C3)C2 [Compound 84, tert-butyl ((1s,3r,5R,7S)-3-((2-(5-methylisoindolin-2-yl)-2-oxoethyl)amino)adamantan-1-yl)carbamate] |  |  |  |  |  |  | 4710 ± 444 | 23 | 208 ± 48 | 
11 | CC(C)(C)NC(=O)NC12CC3CC(CC(NCC(=O)N4Cc5cc(F)c(F)cc5C4)(C3)C1)C2.Cl [Compound 85, 1-(tert-butyl)-3-((1s,3r,5R,7S)-3-((2-(5,6-difluoroisoindolin-2-yl)-2-oxoethyl)amino)adamantan-1-yl)urea hydrochloride] |  |  |  |  |  |  | 1330 ± 97 | 41 | 32 | 
12 | CC(C)(C)CC(=O)NC12CC3CC(CC(NCC(=O)N4Cc5cc(F)c(F)cc5C4)(C3)C1)C2 [Compound 86, N-((1s,3r,5R,7S)-3-((2-(5,6-difluoroisoindolin-2-yl)-2-oxoethyl)amino)adamantan-1-yl)-3,3-dimethylbutanamide] |  |  |  |  |  |  | 1300 ± 127 | 22 | 58 | 
13 | Cl.O=C(NC12CC3CC(CC(NCC(=O)N4Cc5ccc(F)cc5C4)(C3)C1)C2)c1ccc(-c2cccnc2)cc1 [Compound 88, N-((1s,3r,5R,7S)-3-((2-(5-fluoroisoindolin-2-yl)-2-oxoethyl)amino)adamantan-1-yl)-4-(pyridin-3-yl)benzamide hydrochloride] |  |  |  |  |  |  | 51 ± 25 | 24 | 2 | 
14 | Cl.O=C(NC12CC3CC(CC(NCC(=O)N4Cc5ccc(F)cc5C4)(C3)C1)C2)c1ccc(-c2ccccn2)cc1 [Compound 90, N-((1s,3r,5R,7S)-3-((2-(5-fluoroisoindolin-2-yl)-2-oxoethyl)amino)adamantan-1-yl)-4-(pyridin-2-yl)benzamide hydrochloride] |  |  |  |  |  |  | 127 ± 23 | 37 | 3 | 
15 | Cl.O=C(NC12CC3CC(CC(NCC(=O)N4Cc5ccc(F)cc5C4)(C3)C1)C2)c1ccc(-c2ccncc2)cc1 [Compound 91, N-((1s,3r,5R,7S)-3-((2-(5-fluoroisoindolin-2-yl)-2-oxoethyl)amino)adamantan-1-yl)-4-(pyridin-4-yl)benzamide hydrochloride] |  |  |  |  |  |  | 102 ± 28 | 12 | 8 | 
16 | Cl.O=C(NC12CC3CC(CC(NCC(=O)N4Cc5ccc(F)cc5C4)(C3)C1)C2)c1ccc(F)cc1 [Compound 95, 4-fluoro-N-((1s,3r,5R,7S)-3-((2-(5-fluoroisoindolin-2-yl)-2-oxoethyl)amino)adamantan-1-yl)benzamide hydrochloride] |  |  |  |  |  |  | 295 ± 15 | 7 | 42 | 
17 | Cl.O=C(NC12CC3CC(CC(NCC(=O)N4Cc5ccc(F)cc5C4)(C3)C1)C2)c1cccnc1 [Compound 98, N-((1s,3r,5R,7S)-3-((2-(5-fluoroisoindolin-2-yl)-2-oxoethyl)amino)adamantan-1-yl)nicotinamide hydrochloride] |  |  |  |  |  |  | 270 ± 33 | 3 | 88 ± 23 | 
18 | Cc1ncsc1-c1ccc(CNC(=O)[C@@H]2C[C@@H](O)CN2C(=O)[C@@H](NC(=O)CCOCCOCCOCCC(=O)NC23CC4CC(CC(NCC(=O)N5Cc6ccc(F)cc6C5)(C4)C2)C3)C(C)(C)C)cc1 [Compound 124, (2S,4R)-1-((2S)-2-(tert-butyl)-16-((3-((2-(5-fluoroisoindolin-2-yl)-2-oxoethyl)amino)adamantan-1-yl)amino)-4,16-dioxo-7,10,13-trioxa-3-azahexadecanoyl)-4-hydroxy-N-(4-(4-methylthiazol-5-yl)benzyl)pyrrolidine-2-carboxamide] |  |  |  |  |  |  | 94 ± 25 | 5 | 20 | 
19 | Lithium (((3-((2-(5-fluoroisoindolin-2-yl)-2-oxoethyl)amino)adamantan-1-yl)oxy)carbonyl)glycine [Compound 54] |  |  |  |  |  |  |  |  |  | IC50 (DPP8; [3]): 243 ± 46.4 nM; IC50 (DPP9; [4]): 8.88 nM; SI DPP9/8 (DPP9; Table 3): 27.4
20 | Methyl (((3-((2-(5-fluoroisoindolin-2-yl)-2-oxoethyl)amino)adamantan-1-yl)oxy)carbonyl)-L-isoleucinate [Compound 57] |  |  |  |  |  |  |  |  |  | IC50 (DPP8; [3]): 2180 ± 345 nM; IC50 (DPP9; [4]): 107 nM; SI DPP9/8 (DPP9; Table 3): 20.4
21 | N-(3-((2-(isoindolin-2-yl)-2-oxoethyl)amino)adamantan-1-yl)adamantane-1-carboxamide [Compound 43] |  |  |  |  |  |  |  |  |  | IC50 (DPP8; [3]): 5700 ± 1100 nM; IC50 (DPP9; [4]): 186 ± 53.6 nM; SI DPP9/8 (DPP9; Table 3): 30.6
22 | N-(-3-((2-(5-fluoroisoindolin-2-yl)-2-oxoethyl)amino)adamantan-1-yl)adamantane-1-carboxamide [Compound 45] |  |  |  |  |  |  |  |  |  | IC50 (DPP8; [3]): 1180 ± 138 nM; IC50 (DPP9; [4]): 38 ± 10 nM; SI DPP9/8 (DPP9; Table 3): 31
23 | lithium (((3-((2-(5-fluoroisoindolin-2-yl)-2-oxoethyl)amino)adamantan-1-yl)oxy)carbonyl)-L-tryptophanate [Compound 56] |  |  |  |  |  |  |  |  |  | IC50 (DPP8; [3]): 2080 ± 184 nM; IC50 (DPP9; [4]): 94.6 nM; SI DPP9/8 (DPP9; Table 3): 22.0
